Source: patent US11046699B2, “Pyrazolo-pyrimidin-amino-cycloalkyl compounds and their therapeutic uses” (RAPT THERAPEUTICS, INC., priority 2018, dated 2021)
Where two headings read alike, the source gives them in different places.

Biological target: GCN2 (Homo sapiens, UniProt Q9P2K8)
Test: GCN2 enzymatic endpoint assay: phosphorylation of GFP-eIF2α measured by TR-FRET (Lanthascreen)
Format: biochemical
Procedure, shortened: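 Endpoint kinase reaction with 2 μM ATP and 80 nM GFP-labelled eIF2α substrate, run at room temperature for 90 min, then stopped with EDTA. Phospho-substrate detected by terbium-antibody TR-FRET, activity taken as the 520/495 nm emission ratio.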

[1] = tested as described in Example 77, compound and/or hydrochloride, dihydrochloride or trifluoroacetic acid salt, read-out: IC 50 Activity

Chain of GCN2 (Q9P2K8 whole entry): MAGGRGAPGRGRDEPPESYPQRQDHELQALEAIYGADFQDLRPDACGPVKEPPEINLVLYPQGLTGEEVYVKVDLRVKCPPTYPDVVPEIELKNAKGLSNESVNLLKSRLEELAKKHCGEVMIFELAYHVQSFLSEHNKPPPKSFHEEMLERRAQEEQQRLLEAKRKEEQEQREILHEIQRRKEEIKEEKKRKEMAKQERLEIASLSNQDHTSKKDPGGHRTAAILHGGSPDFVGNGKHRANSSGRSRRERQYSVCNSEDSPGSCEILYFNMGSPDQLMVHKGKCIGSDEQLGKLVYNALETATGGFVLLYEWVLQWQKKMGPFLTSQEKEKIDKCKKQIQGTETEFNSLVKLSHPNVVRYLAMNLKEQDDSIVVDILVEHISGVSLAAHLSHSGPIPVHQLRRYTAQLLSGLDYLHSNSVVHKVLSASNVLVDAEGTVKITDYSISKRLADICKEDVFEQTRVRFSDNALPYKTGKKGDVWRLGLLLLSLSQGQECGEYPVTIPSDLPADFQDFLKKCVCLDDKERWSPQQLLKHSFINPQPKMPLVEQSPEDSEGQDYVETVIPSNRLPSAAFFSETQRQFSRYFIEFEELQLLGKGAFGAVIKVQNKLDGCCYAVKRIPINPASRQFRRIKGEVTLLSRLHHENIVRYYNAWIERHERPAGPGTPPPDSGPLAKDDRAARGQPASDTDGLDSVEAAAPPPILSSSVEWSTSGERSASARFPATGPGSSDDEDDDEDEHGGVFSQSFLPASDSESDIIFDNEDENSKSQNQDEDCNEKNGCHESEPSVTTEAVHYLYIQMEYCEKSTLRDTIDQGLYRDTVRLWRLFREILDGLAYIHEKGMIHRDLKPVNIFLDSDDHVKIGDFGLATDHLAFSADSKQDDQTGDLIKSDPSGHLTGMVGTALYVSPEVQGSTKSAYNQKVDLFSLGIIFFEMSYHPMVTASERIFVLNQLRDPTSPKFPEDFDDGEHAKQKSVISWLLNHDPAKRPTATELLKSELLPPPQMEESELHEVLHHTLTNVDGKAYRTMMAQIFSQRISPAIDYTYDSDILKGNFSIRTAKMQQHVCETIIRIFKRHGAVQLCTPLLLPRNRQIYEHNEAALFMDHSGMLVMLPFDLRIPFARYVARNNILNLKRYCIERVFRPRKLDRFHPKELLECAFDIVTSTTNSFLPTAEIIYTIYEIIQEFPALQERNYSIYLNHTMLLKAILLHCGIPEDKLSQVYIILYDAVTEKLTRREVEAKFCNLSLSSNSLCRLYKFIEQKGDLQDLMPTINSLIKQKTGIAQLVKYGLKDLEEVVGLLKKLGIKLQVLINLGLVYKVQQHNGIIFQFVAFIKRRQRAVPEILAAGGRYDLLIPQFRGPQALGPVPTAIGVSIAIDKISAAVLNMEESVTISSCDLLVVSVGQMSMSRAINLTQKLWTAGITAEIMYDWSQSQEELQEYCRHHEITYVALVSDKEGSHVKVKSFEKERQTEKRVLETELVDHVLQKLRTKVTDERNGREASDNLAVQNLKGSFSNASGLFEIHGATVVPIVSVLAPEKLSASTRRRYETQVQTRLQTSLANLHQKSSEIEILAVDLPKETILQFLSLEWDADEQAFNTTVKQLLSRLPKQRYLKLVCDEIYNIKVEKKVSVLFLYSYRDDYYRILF

Row | Structure (SMILES) | IC50 (GCN2 biochemical IC50, 4 nM GCN2, 2 μM ATP, 80 nM GFP-eIF2α, 90 min RT, read-out: GCN2 activity) [nM] | IC50 [1] [nM]
1 | CNC(=O)[C@]1(C)CC[C@@H](Nc2ncc3c(Br)nn(-c4cc([C@@H](C)N)c5nccnc5c4)c3n2)C1 [Example 34, (1R,3R)-3-((1-(8-((R)-1-aminoethyl)quinoxalin-6-yl)-3-bromo-1H-pyrazolo[3,4-d]pyrimidin-6-yl)amino)-N,1-dimethylcyclopentane-1-carboxamide; 2,2,2-trifluoroacetic acid] | < 25 | 
2 | O=C(CO)N1CCN(C(=O)[C@@H]2CC[C@@H](Nc3ncc4c(Br)nn(-c5ccc6ncccc6c5)c4n3)C2)CC1 [1-(4-((1R,3R)-3-((3-bromo-1-(quinolin-6-yl)-1H-pyrazolo[3,4-d]pyrimidin-6-yl)amino)cyclopentane-1-carbonyl)piperazin-1-yl)-2-hydroxyethan-1-one] |  | 25 to 200
3 | CN1CN(C(=O)[C@]2(C)CC[C@@H](Nc3ncc4c(Br)nn(-c5cc(F)c6ncccc6c5)c4n3)C2)CC1=O [1-[(1R,3R)-3-[[3-bromo-1-(8-fluoro-6-quinolyl)pyrazolo[3,4-d]pyrimidin-6-yl]amino]-1-methyl-cyclopentanecarbonyl]-3-methyl-imidazolidin-4-one] |  | < 25
4 | CS(=O)(=O)N1CC[C@@H](Nc2ncc3c(Br)nn(-c4ccc5ncccc5c4)c3n2)C1 [(R)-3-bromo-N-(1-(methylsulfonyl)pyrrolidin-3-yl)-1-(quinolin-6-yl)-1H-pyrazolo[3,4-d] pyrimidin-6-amine] |  | 200 to 500
5 | CNC(=O)[C@]1(C)CC[C@@H](Nc2ncc3c(Br)nn(-c4ccc5cncnc5c4)c3n2)C1 |  | 25 to 200
6 | CNC(=O)[C@]1(C)CC[C@@H](Nc2ncc3c(Br)nn(-c4cc(O)c5c(c4)OCC(=O)N5C)c3n2)C1 [(1R,3R)-3-[[3-bromo-1-(5-hydroxy-4-methyl-3-oxo-1,4-benzoxazin-7-yl)pyrazolo[3,4-d]pyrimidin-6-yl]amino]-N,1-dimethyl-cyclo-pentanecarboxamide] |  | 25 to 200
7 | CN1C(=O)CCC1CNC(=O)[C@@H]1CC[C@@H](Nc2ncc3c(Br)nn(-c4cc(C#N)c5ncccc5c4)c3n2)C1 (some centres unmarked) |  | < 25
8 | CNC(=O)[C@]1(C)CC[C@@H](Nc2ncc3c(Br)nn(-c4ccc(-c5nnc(C(C)O)o5)cc4)c3n2)C1 (stereo partly drawn) [(1R,3R)-3-[[3-bromo-1-[4-[5-(1-hydroxy-ethyl)-1,3,4-oxadiazol-2-yl]phenyl]pyrazolo [3,4-d]pyrimidin-6-yl]amino]-N,1-dimethyl-cyclopentanecarboxamide] |  | 25 to 200
9 | CNC(=O)[C@]1(C)CC[C@@H](Nc2ncc3c(Br)nn(-c4cc(C#N)cc(CO)c4)c3n2)C1 [(1R,3R)-3-[[3-bromo-1-[3-cyano-5-(hydroxymethyl)phenyl]pyrazolo[3,4-d]pyrimidin-6-yl]amino]-N,1-dimethyl-cyclopentanecarboxamide] |  | 25 to 200
10 | CN1CCN(C(=O)[C@@H]2CC[C@@H](Nc3ncc4c(Br)nn(-c5cc(C(F)F)c6ncccc6c5)c4n3)C2)CC1=O [4-((1R,3R)-3-((3-bromo-1-(8-(difluoromethyl)quinolin-6-yl)-1H-pyrazolo[3,4-d]pyrimidin-6-yl)amino)cyclopentane-1-carbonyl)-1-methyl-piperazin-2-one] |  | 25 to 200
11 | CNC(=O)C1(C)CC[C@@H](Nc2ncc3c(Br)nn(-c4cc(Cl)cc(CO)c4)c3n2)C1 (stereo partly drawn) [(3R)-3-[[3-bromo-1-[3-chloro-5-(hydroxy-methyl)phenyl]pyrazolo[3,4-d]pyrimidin-6-yl]amino]-N,1-dimethyl-cyclopentane-carboxamide] |  | 25 to 200
12 | CNS(=O)(=O)C1CC[C@@H](Nc2ncc3c(Br)nn(-c4ccc(-c5nnc(C)s5)c(CCC#N)c4)c3n2)C1 (stereo partly drawn) [(3R)-3-[[3-bromo-1-[3-(2-cyanoethyl)-4-(5-methyl-1,3,4-thiadiazol-2-yl)phenyl]pyrazolo[3,4-d]pyrimidin-6-yl]amino]-N-methyl-cyclopentanesulfonamide] |  | 25 to 200
13 | O=C1CN(C(=O)[C@@H]2CC[C@@H](Nc3ncc4c(Br)nn(-c5cc(F)c6ncccc6c5)c4n3)C2)CN1 |  | 25 to 200
14 | N#Cc1cc(-n2nc(Br)c3cnc(N[C@@H]4CC[C@@H](C(=O)NCC5(F)CNC5)C4)nc32)cc2cccnc12 |  | < 25
